Laboratory results taken from US20070161542A1, “Ptb1b photoprobes” (priority 2003, published 2007).

What was measured:
[1] = biological target: T1, purified Flag-PTP1B (Homo sapiens, UniProt P18031); experiment: Photolabeling of purified enzyme using radioactive photoprobes; type: binding
T1 construct: Flag-PTP1B (residues 1-320 as a flag fusion); made in house
T1 sequence (P18031 1-320): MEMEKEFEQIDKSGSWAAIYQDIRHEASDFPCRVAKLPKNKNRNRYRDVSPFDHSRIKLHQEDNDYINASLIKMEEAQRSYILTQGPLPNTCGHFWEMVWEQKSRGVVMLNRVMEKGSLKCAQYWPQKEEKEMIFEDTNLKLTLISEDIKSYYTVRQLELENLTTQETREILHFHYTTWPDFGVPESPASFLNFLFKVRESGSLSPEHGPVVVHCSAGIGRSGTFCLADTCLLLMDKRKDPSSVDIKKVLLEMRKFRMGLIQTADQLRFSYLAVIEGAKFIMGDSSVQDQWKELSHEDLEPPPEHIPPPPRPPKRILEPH
Procedure: (§1) All photolabeling experiments with purified enzymes or SF9 cell lysate overexpressing PTP1B were conducted in 96-well polystyrene plates in 50 μl BisTris buffer (50 mM BisTris pH 6.3, 2 mM EDTA, 1 mM DMH) containing enzyme (in BisTris buffer with 20% glycerol, 0.01% Triton X-100) or lysate and Example 9 (in water) or Example 1 (in water) at various concentrations and shaken for 1 min at room temperature. For competition studies, BzN-EJJ-AMIDE at various concentrations was added prior to the addition of the probes. The samples were then placed on ice for 5 min and irradiated with the 40 watt lamp at the standard 10 cm distance for 15 minutes. […] Autoradiography of the dried, coommassie-stained gel was done using Phosphorimaging (Molecular Devices) or by x-ray film (BioMax MS with intensifier screen, Kodak) and quantified by densitometry.
To study the labeling of PTP1B under physiological concentrations that exist in cells and tissues, ^125I -radiolabeled versions of Examples 9 and 1 were synthesized. […] The labeled enzyme was detected by phosphorimage (Molecular Devices) or x-ray film (BioMax MS with intensifier screen) from a SDS-PAGE gel after electrophoresis. From a titration of the purified PTP1B and probe, a detection limit for the two probes of Examples 9 and 1 were determined to be about 5 and 0.2 nM respectively, as detected by phosphorimaging. […]

[2] = biological target: T2, full-length PTP1B in SF9 lysate (Homo sapiens, UniProt P18031); experiment: Photolabeling of SF9 cell lysate overexpressing PTP1B; type: binding; details: PTP1B 1% wt/wt protein
T2 construct: Infected SF9 cell lysate expressing full-length PTP1B (as a flag fusion); made in house; host or cells: SF9 insect cells (infected), used as crude lysate
T2 sequence (P18031 1-435): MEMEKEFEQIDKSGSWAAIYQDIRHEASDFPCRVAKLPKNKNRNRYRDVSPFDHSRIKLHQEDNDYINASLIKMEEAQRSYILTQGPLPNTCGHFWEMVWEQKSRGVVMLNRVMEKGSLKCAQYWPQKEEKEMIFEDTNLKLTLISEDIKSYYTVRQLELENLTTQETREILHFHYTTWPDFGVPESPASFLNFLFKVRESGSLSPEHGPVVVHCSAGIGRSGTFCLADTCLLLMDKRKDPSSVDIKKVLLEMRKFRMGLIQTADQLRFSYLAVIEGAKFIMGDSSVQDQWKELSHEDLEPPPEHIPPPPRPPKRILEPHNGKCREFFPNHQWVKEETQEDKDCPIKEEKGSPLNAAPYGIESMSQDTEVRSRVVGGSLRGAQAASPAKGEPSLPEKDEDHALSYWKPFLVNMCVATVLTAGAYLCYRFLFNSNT
Text: Protein tyrosine phosphatases used in this study were expressed and purified using published procedures, as follows: (a) Flag-PTP1B (residues 1-320 as a flag fusion), Huyer et al. (29). (b) Flag-TCPTP (residues 1-281 as a flag fusion), Asante-Appiah et al. (30). (c) Flag-CD45 (residues 556-1268 as a flag fusion), Wang et al. (31). (d) Mutant C215S-PTP1B (residues 1-320 as a gst fusion), Skorey et al. (28). (e) Infected SF9 cell lysate expressing full-length PTP1B (as a flag fusion), Cromlish et al. (25). For studies using H2O2-inactivated Flag-PTP1B, 100 μl of 2 μg/ml PTP1B was incubated with 100 μl of 1 mM or 20 mM H2O2 for 15 min to obtain 50% or 100% inactivated enzyme respectively as determined by the enzyme kinetic assay.
as §1, with “temperature.” for “temperature. For competition studies, BzN-EJJ-AMIDE at various concentrations was added prior to the addition of the probes. The samples were then placed on ice for 5 min and irradiated with the 40 watt lamp at the standard 10 cm distance for 15 minutes.”, “densitometry. […]” for “densitometry.”

efficiency of labeling ([1]; 7 nM probe, purified Flag-PTP1B, vs probe alone after gel electrophoresis): 9% | detection limit of labeled PTP1B ([1]; 125I-radiolabeled probe, purified PTP1B, phosphorimaging): about 5 nM | labeling of SF9 overexpressed PTP1B [2]: labeled SF9 overexpressed PTP1B
SMILES: NC(=O)[C@H](Cc1ccc(C(F)(F)P(=O)(O)O)cc1)NC(=O)[C@H](Cc1ccc(C(F)(F)P(=O)(O)O)cc1)NC(=O)c1cc(I)cc(C2(C(F)(F)F)N=N2)c1 [Example 9, 4-(Difluoro(phosphono)methyl)-N-(3-iodo-5-(3-(trifluoromethyl)-3H-diaziren-3-yl)benzoyl)-L-phenylalanyl-4-(difluoro(phosphono)methyl)-L-phenylalaninamide]
